Values joined by “and” are separate entries in the source; they are usually repeats but may differ in a detail not shown here. Equal entries are not always repeated.
Legend:
[1] = biological target: T1, SMARCA4^BD (Homo sapiens, UniProt P51532); test: SPR binding to immobilised SMARCA4 bromodomain
T1 construct: P51532, residues 1448–1569 with additional N-terminal SM residues; GST (TEV site) (N, cleaved yes); made in house; host or cells: Escherichia coli BL21(DE3); construct from SGC Toronto
Procedure: SMARCA4^BD was provided by the Structural Genomics Consortium (SGC), Toronto[32] and SMARCA2^BD and PRM1^BD5 were synthesised by GeneArt then subcloned into pDEST15 vectors (Invitrogen). The VCB complex was expressed and purified as described previously, with the modification that 0.3 mM IPTG was used for induction of expression. […] Both were stored in 20 mM 4-(2-hydroxyethyl)−1-piperazineethanesulfonic acid (HEPES), 150 mM sodium chloride and 1 mM tris(2-carboxyethyl)phosphine (TCEP) pH 7.5. SMARCA2^BD, SMARCA4^BD and PBRM1^BD5 were expressed in Escherichia coli BL21(DE3) as N-terminal GST fusion proteins with a TEV protease cleavage site. Expression and purification of these proteins has been described previously[32],[33]. Starter cultures were grown overnight at 37 °C in 10 mL of Luria-Bertani (LB) medium with ampicillin (100 μg/mL). The starter cultures were diluted (1:100) in Terrific Broth (TB) medium with ampicillin (100 μg/mL) and grown in a shaking incubator at 37 °C to an optical density (OD600) ~1 before the temperature was lowered for induction (to 23 °C for SMARCA2^BD or 18 °C for SMARCA4^BD and PRRM1^BD5). […] Cells were harvested by centrifugation and stored at −80 °C prior to purification. Cells were resuspended in Lysis buffer and lysed by sonication (20 pulses of 5 s for 4 min) using a Sonopuls HD 3080 (Bandelin, Berlin, Germany) or by homogenisation using a Stansted Pressure Cell Homogeniser (Stansted Fluid Power). The Lysis buffers were as follows: for SMARCA2^BD: 50 mM HEPES, 500 mM sodium chloride, 5% glycerol, 5 mM dithiothreitol (DTT); for SMARCA4^BD: 25 mM HEPES, 0.3 M sodium chloride, 5% glycerol, 10 mM DTT, pH 7.5; for PBRM1^BD5: 25 mM HEPES, 300 mM sodium chloride, 5% glycerol, 10 mM DTT, pH 7.8; in each case supplemented with complete protease inhibitors (Roche). Affinity purification was performed using Glutathione Sepharose 4B (GE Healthcare) in batch mode or on-column. […] For SMARCA2^BD, prior to TEV protease cleavage the eluted GST-tagged BD was first dialysed into desalting buffer (20 mM HEPES, 250 mM sodium chloride, pH 7.0 + 0.5% glycerol). Where TEV cleavage was performed in solution, a second affinity (GST-trap) column purification step was carried out to remove the GST-tag and uncleaved GST-tagged protein. Proteins were further purified by SEC (HiLoad Superdex-75, 16/600) (GE Healthcare) and stored in Storage buffer (for SMARCA2^BD: 20 mM HEPES, 150 mM sodium chloride, pH 7.5; for SMARCA4^BD: 10 mM HEPES, 0.5 M NaCl, 5% glycerol, pH 7.5; for PBRM1^BD5: 20 mM HEPES, 300 mM NaCl, 5 mM DTT, pH 7.8). For AlphaScreen assays, eluted GST-tagged BDs were purified directly by SEC in the respective storage buffers without TEV cleavage. All chromatography purification steps were performed either at room temperature or 4 °C using an ÄKTA FPLC purification system (GE Healthcare) or a plastic Econo-Pac column (Bio-Rad).
SPR data were acquired on Biacore 8K or T200 instruments (Cytiva). Target proteins were immobilised at 25 °C on CM5 chips by amine coupling (EDC/NHS, Cytiva) in HBS-P+ running buffer (pH 7.4), containing 2 mM TCEP. After surface activation with EDC/NHS (contact time 420 s, flow rate 10 µl/min) SMARCA2^BD and SMARCA4^BD at 0.01–0.05 mg/ml in coupling buffer (10 mM Na-Acetate pH 6.5, 0.005% TWEEN 20 and 50 µM PFI-3[13]) were immobilised to a density of 100–5000 Response Units (RU). The reference surface was subsequently deactivated using 1 M ethanolamine. For VCB immobilisation, streptavidin (Sigma Aldrich, prepared at 1 mg/ml in 10 mM sodium acetate coupling buffer, pH 5.0) was immobilised by amine coupling to a density of 3000–5000 RU after which biotinylated VCB complex (0.125 mM in running buffer) was streptavidin-coupled to a density of 100–500 RU. Biotinylated VCB was prepared as previously described[27]: in brief, the complex was mixed 1:1 with EZ-Link NHS–PEG4–biotin (Thermo Scientific) and incubated at room temperature for 1 h.

[2] = biological target: SMARCA2 (Homo sapiens, UniProt P51531); test: SMARCA2 capillary electrophoresis protein assay in RKO cells; type: cell-based; design: endogenous in cells; host or cells: RKO, NCI-H1568, A549, HCT116, LU99, HCC-364, HCT-15, HCC4006, SK-N-AS
Sequence of SMARCA2 (P51531 whole entry): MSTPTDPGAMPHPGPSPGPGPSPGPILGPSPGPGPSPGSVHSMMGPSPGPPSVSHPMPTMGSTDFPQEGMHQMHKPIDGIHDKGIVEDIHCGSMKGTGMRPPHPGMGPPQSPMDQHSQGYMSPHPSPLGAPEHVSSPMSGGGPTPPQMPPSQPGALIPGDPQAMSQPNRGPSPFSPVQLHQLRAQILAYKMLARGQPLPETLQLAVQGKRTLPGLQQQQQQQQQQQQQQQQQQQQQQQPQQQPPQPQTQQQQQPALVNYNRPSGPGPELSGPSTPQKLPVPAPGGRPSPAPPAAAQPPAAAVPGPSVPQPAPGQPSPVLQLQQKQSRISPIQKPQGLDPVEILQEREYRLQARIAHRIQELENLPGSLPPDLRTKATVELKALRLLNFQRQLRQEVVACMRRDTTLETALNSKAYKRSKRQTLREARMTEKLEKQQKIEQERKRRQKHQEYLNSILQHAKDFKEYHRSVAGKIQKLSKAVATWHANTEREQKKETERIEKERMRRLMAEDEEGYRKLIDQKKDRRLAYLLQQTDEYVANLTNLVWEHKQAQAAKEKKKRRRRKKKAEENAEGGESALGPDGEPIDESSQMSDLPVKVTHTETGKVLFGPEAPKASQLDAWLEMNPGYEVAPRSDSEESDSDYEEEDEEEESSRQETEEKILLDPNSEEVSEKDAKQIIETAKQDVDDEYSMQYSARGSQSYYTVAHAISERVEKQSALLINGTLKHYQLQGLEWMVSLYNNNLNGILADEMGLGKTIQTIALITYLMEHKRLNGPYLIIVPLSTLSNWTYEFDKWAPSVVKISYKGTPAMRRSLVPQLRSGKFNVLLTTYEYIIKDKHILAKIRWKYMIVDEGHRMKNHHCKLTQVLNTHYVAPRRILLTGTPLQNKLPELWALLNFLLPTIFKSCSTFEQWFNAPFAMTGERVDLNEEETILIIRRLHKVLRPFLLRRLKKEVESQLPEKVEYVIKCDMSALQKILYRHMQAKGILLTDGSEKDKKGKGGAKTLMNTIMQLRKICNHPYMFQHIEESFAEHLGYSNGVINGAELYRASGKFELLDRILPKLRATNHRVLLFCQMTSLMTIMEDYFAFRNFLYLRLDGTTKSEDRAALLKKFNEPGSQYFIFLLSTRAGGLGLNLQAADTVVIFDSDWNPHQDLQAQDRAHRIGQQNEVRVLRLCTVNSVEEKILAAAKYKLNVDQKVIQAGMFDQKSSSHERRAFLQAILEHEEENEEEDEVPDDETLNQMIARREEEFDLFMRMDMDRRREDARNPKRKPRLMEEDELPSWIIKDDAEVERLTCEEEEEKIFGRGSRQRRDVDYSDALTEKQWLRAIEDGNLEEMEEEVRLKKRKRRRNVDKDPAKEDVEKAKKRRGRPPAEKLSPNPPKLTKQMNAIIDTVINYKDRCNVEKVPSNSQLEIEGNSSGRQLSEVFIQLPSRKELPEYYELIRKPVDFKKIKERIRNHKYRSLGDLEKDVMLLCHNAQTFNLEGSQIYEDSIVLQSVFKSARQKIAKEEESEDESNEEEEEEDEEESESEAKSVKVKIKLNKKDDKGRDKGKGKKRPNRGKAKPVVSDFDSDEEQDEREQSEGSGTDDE
Procedure: 130,000–200,000 cells were seeded in 24-well plates and incubated until settled down or overnight. Compounds were dissolved in DMSO and added to cells in indicated concentrations using a digital dispenser following an optional media change. […] For SMARCA2/4 half-life determination, 150,000 or 200,000 cells were seeded in 24-well plates. […] For SMARCA2/4 re-synthesis measurements, 200,000 cells were seeded in 24-well plates. […] Medium was removed, cells were washed with PBS and lysed with 80 µl Lysis Buffer (MSD Tris Lysis Buffer (#R60TX-2) + Halt Inhibitor Cocktail (100x) + Benzonase 0.5 µL/ml). Samples were frozen at −80 °C and thawed at room temperature before use. Samples were transferred to a V-bottom plate and insoluble debris was pelleted by centrifugation for 5 min at maximum speed. The supernatant was transferred to a fresh plate. Master Mix and Ladder were prepared according to manufacturer’s instructions for 12–230 kDa Wes Separation Module, 8 × 25 capillary cartridges, Protein Simple #SM-W004 with Anti-Rabbit Detection Module for Wes, Peggy Sue or Sally Sue, Protein Simple #DM-001. 4.8 µl lysate were mixed with 1.2 µl Master Mix to achieve a protein concentration of ~0.5 µg/µl. […] Wes plates were prepared and run according to manufacturer’s instructions. Proteins were quantified with accompanying Compass Software. SMARCA2/4 protein levels were normalised to GAPDH. […] Where applicable, curves were fitted using a 4-parametric logistic model.

T1 sequence (P51532 1448-1569): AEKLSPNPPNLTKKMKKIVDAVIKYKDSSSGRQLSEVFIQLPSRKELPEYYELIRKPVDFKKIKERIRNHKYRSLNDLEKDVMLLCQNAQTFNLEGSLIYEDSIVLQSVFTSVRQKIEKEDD

Row | SMILES | Kd ([1]; SMARCA4BD, mean ± SD) [nM] | Kd ([1]; individual replicates) | DC50 ([2]; RKO (4 h), mean ± SD) [nM] | DC50 ([2]; RKO (18 h), mean ± SD) [nM] | SMARCA2 Dmax ([2]; RKO (4 h), mean ± SD) [%] | SMARCA2 Dmax ([2]; RKO (18 h), mean ± SD) [%] | Dmax ([2]; RKO, RKO (4 h), mean ± SD) [%] | Dmax ([2]; RKO, RKO (18 h), mean ± SD) [%] | SMARCA2/4 selectivity improvement on linker elongation (compound 11 compared with compound 6) ([2]; all-carbon linker series) | window of SMARCA2 over SMARCA4 degradation ([2]; RKO cells) [fold] | DC50 ([2]; RKO cells, time not stated at the place (Supplementary Data 2)) [nM] | Bottom (% protein remaining, four-parameter fit) ([2]; RKO, SM2) [%] | HillSlope (protein remaining) ([2]; RKO, SM2) | Top (% protein remaining, four-parameter fit) ([2]; RKO, SM2) [%]
1 | O=c1nc2n(C3CCCC3)c3ccccc3n2c2cccc(Br)c12 [compound 1] | 1680 ± 317 | 1320 nM and 1830 nM and 1900 nM | > 25000 | > 25000 |  |  |  |  |  |  |  |  |  | 
2 | Cc1ncsc1-c1ccc([C@H](COC(C)(C)CN2CCC(c3ccc4c(c3)n(C3CCCC3)c3nc(=O)c5c(Br)cccc5n43)CC2)NC(=O)[C@@H]2C[C@@H](O)CN2C(=O)[C@@H](NC(=O)C2(F)CC2)C(C)(C)C)cc1 [compound 28] | 278 ± 14 | 267 nM and 293 nM and 274 nM | 17 ± 8 | 5 ± 2 | 69 ± 4 | 76 ± 11 |  |  |  |  |  |  |  | 
3 | CN1CCN(c2nc(=O)c3c(F)cccc3o2)CC1 [compound 17] |  |  | > 25000 | > 25000 |  |  |  |  |  |  |  |  |  | 
4 | Cc1ncsc1-c1ccc([C@H](COCCCN2CCC(c3ccc4c(c3)n(C3CCCC3)c3nc(=O)c5c(Br)cccc5n43)CC2)NC(=O)[C@@H]2C[C@@H](O)CN2C(=O)[C@@H](NC(=O)C2(F)CC2)C(C)(C)C)cc1 [compound 27] | 388 ± 96 | 308 nM and 361 nM and 494 nM | 5 ± 2 | 2 ± 1 | 70 ± 7 | 85 ± 3 |  |  |  |  |  |  |  | 
5 | CN1CCN(c2nc(=O)c3c(Br)cccc3o2)CC1 [compound 15] | 12000 ± 902 | 12900 nM and 11900 nM and 11100 nM | > 25000 | > 25000 |  |  |  |  |  |  |  |  |  | 
6 | Cc1ncsc1-c1ccc(CNC(=O)[C@@H]2C[C@@H](O)CN2C(=O)[C@@H](NC(=O)C2(F)CC2)C(C)(C)C)c(OCCN2CCC(c3ccc4c(c3)n(C3CCCC3)c3nc(=O)c5c(Br)cccc5n43)CC2)c1 [compound 20] | 182 ± 23 | 157 nM and 202 nM and 187 nM | > 25000 | > 25000 |  |  |  |  |  |  |  |  |  | 
7 | Cc1ncsc1-c1ccc([C@H](CCC(C)(C)CCN2CCC(c3ccc4c(c3)n(C3CCCC3)c3nc(=O)c5c(Br)cccc5n43)CC2)NC(=O)[C@@H]2C[C@@H](O)CN2C(=O)[C@@H](NC(=O)C2(F)CC2)C(C)(C)C)cc1 [compound 30] | 579 ± 89 | 492 nM and 575 nM and 669 nM | 8 ± 2 | 3 ± 1 | 74 ± 5 | 82 ± 5 |  |  |  |  |  |  |  | 
8 | Cc1ncsc1-c1ccc([C@H](CCCCCN2CCC(c3ccc4c(c3)n(C3CCCC3)c3nc(=O)c5c(Br)cccc5n43)CC2)NC(=O)[C@@H]2C[C@@H](O)CN2C(=O)[C@@H](NC(=O)C2(F)CC2)C(C)(C)C)cc1 [compound 11] | 297 ± 147 | 201 nM and 223 nM and 466 nM | 2 ± 1 | 1 ± 0.1 |  |  | 73 ± 6 | 87 ± 2 | two- to threefold |  |  |  |  | 
9 | CN1CCN(c2nc(=O)c3c(I)cccc3o2)CC1 [compound 16] | 22100 ± 1230 | 23100 nM and 20700 nM and 22400 nM | > 25000 | > 25000 |  |  |  |  |  |  |  |  |  | 
10 | Cc1ncsc1-c1ccc(CNC(=O)[C@@H]2C[C@@H](O)CN2C(=O)[C@@H](NC(=O)C2(F)CC2)C(C)(C)C)c(OCCOCCOCCN2CCC(c3ccc4c(c3)n(C3CCCC3)c3nc(=O)c5c(Br)cccc5n43)CC2)c1 [compound 21] | 863 ± 179 | 868 nM and 1040 nM and 682 nM | > 25000 | 106 ± 38 |  | 67± 8 |  |  |  |  |  |  |  | 
11 | CN1CCC(c2ccc3c(c2)n(C2CCCC2)c2nc(=O)c4c(Br)cccc4n32)CC1 [compound 3] | 58 ± 10 | 110 nM and 97.7 nM and 113 nM and 69.4 nM and 51 nM and 52.7 nM | > 25000 | 22300 |  |  |  |  |  |  |  |  |  | 
12 | Cc1ncsc1-c1ccc([C@H](CC[C@H](C)CCN2CCC(c3ccc4c(c3)n(C3CCCC3)c3nc(=O)c5c(Br)cccc5n43)CC2)NC(=O)[C@@H]2C[C@H](O)CN2C(=O)[C@@H](NC(=O)C2(F)CC2)C(C)(C)C)cc1 [compound 12] | 362 ± 52 | 306 nM and 408 nM and 370 nM | > 25000 |  |  |  |  | 82 ± 16 |  |  |  |  |  | 
13 | Cc1ncsc1-c1ccc(CNC(=O)[C@@H]2C[C@@H](O)CN2C(=O)[C@@H](NC(=O)C2(F)CC2)C(C)(C)C)c(OCCOCCOCCOCCN2CCC(c3ccc4c(c3)n(C3CCCC3)c3nc(=O)c5c(Br)cccc5n43)CC2)c1 [compound 22] | 1430 ± 339 | 1040 nM and 1650 nM and 1600 nM | 175 ± 165 | 148 ± 97 | 71 ± 25 | 75 ± 8 |  |  |  |  |  |  |  | 
14 | Cc1ncsc1-c1ccc([C@H](CC[C@@H](C)CCN2CCC(c3ccc4c(c3)n(C3CCCC3)c3nc(=O)c5c(Br)cccc5n43)CC2)NC(=O)[C@@H]2C[C@@H](O)CN2C(=O)[C@@H](NC(=O)C2(F)CC2)C(C)(C)C)cc1 [compound 29] | 397 ± 49 | 347 nM and 400 nM | 2 ± 1 | 1 ± 0.1 | 74 ± 2 | 84 ± 4 |  |  |  |  |  |  |  | 
15 | Cc1ncsc1-c1ccc(C(CCC(C)CCN2CCC(c3ccc4c(c3)n(C3CCCC3)c3nc(=O)c5c(Br)cccc5n43)CC2)NC(=O)C2CC(O)CN2C(=O)C(NC(=O)C2(F)CC2)C(C)(C)C)cc1 (stereo not shown) [ACBI2] | 314 ± 76 | 236 nM and 318 nM and 388 nM | 4 ± 1 |  |  |  | 71 ± 2 | 81 ± 7 |  | > 30 | 1 | 21.72 | -0.9367 | 158.8
16 | CN1CCN(c2nc(=O)c3ccccc3o2)CC1 [compound 14] |  | > 200000 nM and 140000 nM | > 25000 | > 25000 |  |  |  |  |  |  |  |  |  | 
17 | CN1CCN(c2nc(=O)c3c(Cl)cccc3o2)CC1 [compound 13] | 35600 ± 346 | 31600 nM and 37500 nM and 37700 nM | > 25000 | > 25000 |  |  |  |  |  |  |  |  |  | 

Reference: article PMC9551036, “A selective and orally bioavailable VHL-recruiting PROTAC achieves SMARCA2 degradation in vivo” (Nature Communications, 2022)
